From patent publication US10508085B2, “Compounds and methods for IDO and TDO modulation, and indications therefor” (Plexxikon Inc., priority 2016, dated 2019)
Like-named read-outs stand apart in the source and are kept apart here.

Experiments:
[1] = biological target: T1, Human Indoleamine 2,3-dioxygenase (IDO) (Homo sapiens, UniProt P14902); test: Human IDO enzymatic assay (kynurenine level); type: biochemical; conditions: 6 nM IDO, 10 μM L-Trp; geometric mean; read-out: IDO1 GMean: IC50 (μM) (Biochemical Assay)
T1 construct: His tag (N); made in house; host or cells: E. coli
How it was run: (§1)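 Kynurenine formed is measured after TCA quench and 50 °C hydrolysis, with % inhibition against full-reaction and no-enzyme controls (5% DMSO). IDO: 6 nM enzyme, 10 μM L-Trp, 5 μM methylene blue, 20 min; TDO: 1 nM, 350 μM L-Trp, 0.4 μM methylene blue, 70 min; both pH 6.5, room temp, E. coli-expressed His-tagged.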

[2] = biological target: T2, Human Tryptophan 2,3-dioxygenase (TDO) (Homo sapiens, UniProt P48775); test: Human TDO enzymatic assay (kynurenine level); type: biochemical; conditions: 1 nM TDO, 350 μM L-Trp; geometric mean; read-out: TDO GMean: IC50 (μM) (Biochemical Assay)
T2 construct: His tag (N); made in house; host or cells: E. coli
How it was run: as §1

[3] = biological target: T3, human IDO (IDO1-expressing HEK293 cells) (Homo sapiens, UniProt P14902); test: Cell based kynurenine assay, IDO1-expressing HEK293 cell clones; conditions: IDO1-expressing HEK293 cells, geometric mean, read-out: HEK293 IDO1 Kynurenine GMean IC50 (μM) (Cellular Assay)
T3 construct: expressed in transfected cells
How it was run: (§2)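 IC50 values come from nonlinear regression of kynurenine reduction in supernatants of human IDO1- or TDO-expressing HEK293 cells incubated 24 h with serially diluted compounds, normalised to cell and media-only controls containing 0.2% DMSO.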

[4] = biological target: T4, human TDO (TDO-expressing HEK293 cells) (Homo sapiens, UniProt P48775); test: Cell based kynurenine assay, TDO-expressing HEK293 cell clones; conditions: TDO-expressing HEK293 cells, geometric mean, read-out: HEK293 TDO Kynurenine GMean IC50 (μM) (Cellular Assay)
T4 construct: expressed in transfected cells
How it was run: as §2

T4 sequence (P48775 whole entry): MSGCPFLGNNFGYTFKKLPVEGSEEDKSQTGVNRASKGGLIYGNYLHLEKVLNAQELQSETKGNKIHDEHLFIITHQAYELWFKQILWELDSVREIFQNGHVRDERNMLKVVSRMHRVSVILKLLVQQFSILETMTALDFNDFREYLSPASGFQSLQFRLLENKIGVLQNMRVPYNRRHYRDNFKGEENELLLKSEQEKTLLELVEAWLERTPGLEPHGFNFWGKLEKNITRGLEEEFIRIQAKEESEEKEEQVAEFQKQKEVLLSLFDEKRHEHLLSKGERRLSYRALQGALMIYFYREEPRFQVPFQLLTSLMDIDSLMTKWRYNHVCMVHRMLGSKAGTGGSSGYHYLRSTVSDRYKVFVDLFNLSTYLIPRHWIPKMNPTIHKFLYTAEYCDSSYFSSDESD
T2 sequence (P48775 whole entry): as above
T3 sequence (P14902 whole entry): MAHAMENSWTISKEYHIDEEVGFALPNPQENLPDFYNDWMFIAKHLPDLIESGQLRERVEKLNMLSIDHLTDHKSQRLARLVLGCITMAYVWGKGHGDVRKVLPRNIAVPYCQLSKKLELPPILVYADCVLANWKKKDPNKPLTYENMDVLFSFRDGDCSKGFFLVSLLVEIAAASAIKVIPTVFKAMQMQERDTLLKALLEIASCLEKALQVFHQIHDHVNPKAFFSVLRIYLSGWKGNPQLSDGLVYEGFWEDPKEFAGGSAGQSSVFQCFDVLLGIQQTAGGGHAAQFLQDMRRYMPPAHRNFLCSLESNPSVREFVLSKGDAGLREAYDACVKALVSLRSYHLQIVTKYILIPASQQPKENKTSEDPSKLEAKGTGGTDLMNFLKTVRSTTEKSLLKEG
T1 sequence (P14902 whole entry): as above

SMILES | IC50 [1] | IC50 [2] | IC50 ([3]; 24 hours) | IC50 ([4]; 24 hours) | IC50 ([3]; 24 hours incubation) | IC50 ([4]; 24 hours incubation)
CC(C)(C1CCN(C(=O)CC2CC2)CC1)[C@H](O)c1cc(Cl)cc2cn[nH]c12 [Compound P-0530, (S)-1-(4-(1-(5-chloro-1H-indazol-7-yl)-1-hydroxy-2-methylpropan-2-yl)piperidin-1-yl)-2-cyclopropylethan-1-one] | 0.0001 to 10 µM | 0.0001 to 10 µM | 0.0001 to 10 µM | 0.0001 to 10 µM |  | 
O=C(Cc1ccnc(Cl)c1)N1CCC(C(F)(F)C(O)c2cc(Cl)cc3cn[nH]c23)CC1 (stereo not shown) [Compound P-0525, 1-(4-(2-(5-chloro-1H-indazol-7-yl)-1,1-difluoro-2-hydroxyethyl)piperidin-1-yl)-2-(2-chloropyridin-4-yl)ethan-1-one] | 0.0001 to 10 µM | 0.0001 to 10 µM | 0.0001 to 10 µM | 0.0001 to 10 µM |  | 
CC(C)(C1CCN(C(=O)C2C(C)(C)C2(C)C)CC1)[C@H](O)c1cc(Cl)cc2cn[nH]c12 [Compound P-0539, (S)-(4-(1-(5-chloro-1H-indazol-7-yl)-1-hydroxy-2-methylpropan-2-yl)piperidin-1-yl)(2,2,3,3-tetramethylcyclopropyl) methanone] | 0.0001 to 10 µM | 0.0001 to 10 µM | 0.0001 to 10 µM | 0.0001 to 10 µM |  | 
OC(c1cccnc1)c1cc(Cl)cc2cn[nH]c12 (stereo not shown) [Compound P-0001, (5-chloro-1H-indazol-7-yl)(pyridin-3-yl)methanol] | 0.0001 to 10 µM | 0.0001 to 10 µM |  |  | > 10 µM | > 10 µM
OC1(c2cc(Cl)cc3cn[nH]c23)CC2(C1)C1CC3CC(C1)CC2C3 (stereo not shown) [Compound P-0113, (1r,3r,5r,7r)-3′-(5-chloro-1H-indazol-7-yl)spiro[adamantane-2,1′-cyclobutan]-3′-ol] | 0.0001 to 10 µM | 0.0001 to 10 µM |  |  | 0.0001 to 10 µM | 0.0001 to 10 µM
CNC(=O)N1CCC(C(C)(C)C(O)c2cc(Cl)cc3[nH]ncc23)CC1 (stereo not shown) [Compound P-0169, 4-(1-(6-chloro-1H-indazol-4-yl)-1-hydroxy-2-methylpropan-2-yl)-N-methylpiperidine-1-carboxamide] | 0.0001 to 10 µM | 0.0001 to 10 µM |  |  | 0.0001 to 10 µM | 0.0001 to 10 µM
CC(C)(C1CCN(C2CC2)CC1)C(O)c1cc(Cl)cc2cn[nH]c12 (stereo not shown) [Compound P-0319, 1-(5-chloro-1H-indazol-7-yl)-2-(1-cyclopropylpiperidin-4-yl)-2-methylpropan-1-ol] | 0.0001 to 10 µM | 0.0001 to 10 µM |  |  | 0.0001 to 10 µM | 0.0001 to 10 µM
CC(C)(C1CCN(C(=O)CN2CCS(=O)(=O)CC2)CC1)[C@H](O)c1cc(Cl)cc2cn[nH]c12 [Compound P-0497, (S)-1-(4-(1-(5-chloro-1H-indazol-7-yl)-1-hydroxy-2-methylpropan-2-yl)piperidin-l-yl)-2-(1,1-dioxidothiomorpholino) ethan-1-one] | 0.0001 to 10 µM | 0.0001 to 10 µM | 0.0001 to 10 µM | 0.0001 to 10 µM |  | 
OC(c1cc(Cl)cc2cn[nH]c12)C1(C(F)(F)F)CCC1 (stereo not shown) [Compound P-0120, (5-chloro-1H-indazol-7-yl)(1-(trifluoromethyl)cyclobutyl)methanol] | 0.0001 to 10 µM | 0.0001 to 10 µM |  |  | 0.0001 to 10 µM | 0.0001 to 10 µM
CC(C)(C)OC(=O)N1CCC(CC(O)c2cccc3cncn23)CC1 (stereo not drawn) [Compound P-0085, tert-butyl 4-(2-hydroxy-2-(imidazo[1,5-a]pyridin-5-yl)ethyl)piperidine-l-carboxylate] | 0.0001 to 10 µM | 0.0001 to 10 µM |  |  | > 10 µM | > 10 µM
CC(C)CNC(=O)N1CCC(C(C)(C)[C@H](O)c2cc(Cl)cc3cn[nH]c23)CC1 [Compound P-0564, (S)-4-(1-(5-chloro-1H-indazol-7-yl)-1-hydroxy-2-methylpropan-2-yl)-N-isobutylpiperidine-1-carboxamide] | 0.0001 to 10 µM | 0.0001 to 10 µM | 0.0001 to 10 µM | 0.0001 to 10 µM |  | 
COCCNC(=O)N1CCC(C(C)(C)[C@H](O)c2cc(Cl)cc3cn[nH]c23)CC1 [Compound P-0446, (S)-4-(1-(5-chloro-1H-indazol-7-yl)-1-hydroxy-2-methylpropan-2-yl)-N-(2-methoxyethyl) piperidine-1-carboxamide] | 0.0001 to 10 µM | 0.0001 to 10 µM | 0.0001 to 10 µM | 0.0001 to 10 µM |  | 
COCCNC(=O)N1CCC(C(C)(C)[C@H](O)c2c(F)c(Cl)cc3cn[nH]c23)CC1 [Compound P-0510, (S)-4-(1-(5-chloro-6-fluoro-1H-indazol-7-yl)-1-hydroxy-2-methylpropan-2-yl)-N-(2-methoxyethyl) piperidine-1-carboxamide] | 0.0001 to 10 µM | 0.0001 to 10 µM | 0.0001 to 10 µM | 0.0001 to 10 µM |  | 
CC(=O)N1CCC(C(F)(F)C(O)c2c(F)c(Cl)cc3cn[nH]c23)CC1 (stereo not drawn) [Compound P-0128, 1-(4-(2-(5-chloro-6-fluoro-1H-indazol-7-yl)-1,1-difluoro-2-hydroxyethyl)piperidin-1-yl)ethan-l-one] | 0.0001 to 10 µM | 0.0001 to 10 µM |  |  | 0.0001 to 10 µM | 0.0001 to 10 µM
CC(C)(C1CCN(C(=O)NCCO)CC1)C(O)c1cc(Cl)cc2cn[nH]c12 (stereo not shown) [Compound P-0476, 4-(1-(5-chloro-1H-indazol-7-yl)-1-hydroxy-2-methylpropan-2-yl)-N-(2-hydroxyethyl) piperidine-1-carboxamide] | 0.0001 to 10 µM | 0.0001 to 10 µM | 0.0001 to 10 µM | 0.0001 to 10 µM |  | 
OCC12CCC(C(O)c3cc(Cl)cc4cn[nH]c34)(CC1)CC2 (stereo not shown) [Compound P-0328, (5-chloro-1H-indazol-7-yl)(4-(hydroxymethyl)bicyclo[2.2.2]octan-1-yl)methanol] | 0.0001 to 10 µM | 0.0001 to 10 µM |  |  | 0.0001 to 10 µM | 0.0001 to 10 µM
CC1(C(O)c2c(F)c(Cl)c(F)c3cn[nH]c23)CCC1 (stereo not shown) [Compound P-0264, (5-chloro-4,6-difluoro-1H-indazol-7-yl)(1-methylcyclobutyl)methanol] | 0.0001 to 10 µM | 0.0001 to 10 µM |  |  | 0.0001 to 10 µM | > 10 µM
CC(C)(C1CCN(C(=O)C2CCOCC2)CC1)[C@H](O)c1c(F)c(Cl)cc2cn[nH]c12 [Compound P-0507, (S)-(4-(1-(5-chloro-6-fluoro-1H-indazol-7-yl)-1-hydroxy-2-methylpropan-2-yl)piperidin-1-yl)(tetrahydro-2H-pyran-4-yl)methanone] | 0.0001 to 10 µM | 0.0001 to 10 µM | 0.0001 to 10 µM | 0.0001 to 10 µM |  | 
OC1(c2cc(Cl)cc3cn[nH]c23)CC2(CCCC2)C1 [Compound P-0048, 2-(5-chloro-1H-indazol-7-yl)spiro[3.4]octan-2-ol] | 0.0001 to 10 µM | 0.0001 to 10 µM |  |  | 0.0001 to 10 µM | 0.0001 to 10 µM
CC(C)(C)OC(=O)N1CCC(C(F)(F)[C@@H](O)c2cc(Cl)cc3cn[nH]c23)CC1 [Compound P-0517, tert-butyl (S)-4-(2-(5-chloro-1H-indazol-7-yl)-1,1-difluoro-2-hydroxyethyl) piperidine-1-carboxylate] | 0.0001 to 10 µM | > 200 µM | > 10 µM | > 10 µM |  | 
CC(C)(C1CCN(C(=O)NCc2ccccc2)CC1)C(O)c1cc(Cl)cc2cn[nH]c12 (stereo not shown) [Compound P-0386, N-benzyl-4-(1-(5-chloro-1H-indazol-7-yl)-1-hydroxy-2-methylpropan-2-yl)piperidine-1-carboxamide] | 0.0001 to 10 µM | 0.0001 to 10 µM |  |  | 0.0001 to 10 µM | 0.0001 to 10 µM
CC(C1CC1)(C1CC1)C(O)c1c(F)c(Cl)cc2cn[nH]c12 (stereo not shown) [Compound P-0260, 1-(5-chloro-6-fluoro-1H-indazol-7-yl)-2,2-dicyclopropylpropan-1-ol] | 0.0001 to 10 µM | 0.0001 to 10 µM |  |  | 0.0001 to 10 µM | 0.0001 to 10 µM
CC(C)(C1CCN(C(=O)NCC(F)(F)F)CC1)[C@H](O)c1cc(Cl)cc2cn[nH]c12 [Compound P-0562, (S)-4-(1-(5-chloro-1H-indazol-7-yl)-1-hydroxy-2-methylpropan-2-yl)-N-(2,2,2-trifluoroethyl) piperidine-1-carboxamide] | 0.0001 to 10 µM | 0.0001 to 10 µM | 0.0001 to 10 µM | 0.0001 to 10 µM |  | 
CC(C)(C1CCN(C(=O)NC2CC2)CC1)C(O)c1cc(Cl)cc2cn[nH]c12 (stereo not shown) [Compound P-0176, 4-(1-(5-chloro-1H-indazol-7-yl)-1-hydroxy-2-methylpropan-2-yl)-N-cyclopropylpiperidine-1-carboxamide] | 0.0001 to 10 µM | 0.0001 to 10 µM |  |  | 0.0001 to 10 µM | 0.0001 to 10 µM
CC(C)NC(=O)N1CCC(C(C)(C)[C@@H](O)c2cc(Cl)cc3cn[nH]c23)CC1 [Compound P-0429, (R)-4-(1-(5-chloro-1H-indazol-7-yl)-1-hydroxy-2-methylpropan-2-yl)-N-isopropylpiperidine-1-carboxamide] | 0.0001 to 10 µM | 0.0001 to 10 µM | > 10 µM | 0.0001 to 10 µM |  | 
